From PubChem BioAssay (NCI)
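All cell lines were grown in 96-well plates and treated with compound for 48 hours. TGI is the concentration that stops growth completely.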

What was measured:
Experiment in all cases: DTP human tumour cell line panel, 48 h
KM20L2 colon = tested on: KM20L2 colon
SNB-75 CNS = tested on: SNB-75 CNS
SF-539 CNS = tested on: SF-539 CNS
ACHN renal = tested on: ACHN renal
UACC-62 melanoma = tested on: UACC-62 melanoma
HL-60(TB) leukemia = tested on: HL-60(TB) leukemia
XF 498 CNS = tested on: XF 498 CNS
DMS 114 small cell lung = tested on: DMS 114 small cell lung
A549 NSCLC = tested on: A549 NSCLC
RXF-631 renal = tested on: RXF-631 renal
LXFL 529 NSCLC = tested on: LXFL 529 NSCLC
RPMI-8226 leukemia = tested on: RPMI-8226 leukemia
MDA-MB-435 = tested on: MDA-MB-435
PC-3 prostate = tested on: PC-3 prostate
DU-145 prostate = tested on: DU-145 prostate
MDA-MB-231 breast = tested on: MDA-MB-231 breast
T-47D breast = tested on: T-47D breast
MCF7 breast = tested on: MCF7 breast
MDA-N = tested on: MDA-N
BT-549 breast = tested on: BT-549 breast

Compound | TGI (KM20L2 colon) [µM] | TGI (SNB-75 CNS) [µM] | TGI (SF-539 CNS) [µM] | TGI (ACHN renal) [µM] | TGI (UACC-62 melanoma) [µM] | TGI (HL-60(TB) leukemia) [µM] | TGI (XF 498 CNS) [µM] | TGI (DMS 114 small cell lung) [µM] | TGI (A549 NSCLC) [µM] | TGI (RXF-631 renal) [µM] | TGI (LXFL 529 NSCLC) [µM] | TGI (RPMI-8226 leukemia) [µM] | TGI (MDA-MB-435) [µM] | TGI (PC-3 prostate) [µM] | TGI (DU-145 prostate) [µM] | TGI (MDA-MB-231 breast) [µM] | TGI (T-47D breast) [µM] | TGI (MCF7 breast) [µM] | TGI (MDA-N) [µM] | TGI (BT-549 breast) [µM]
O=C(N/N=C/c1cc(Br)cc(Br)c1[O-])c1ccccc1O.O=C(N/N=C/c1cc(Br)cc(Br)c1[O-])c1ccccc1O.[Cu+2] | 2.09 | 1.99 | 0.926 | 2.42 | 0.551 | 0.359 | – | – | – | – | – | – | – | – | – | – | – | – | – | –
O=c1c(C(c2ccc(Cl)cc2)c2c(O)c3ccccc3n(-c3ccccc3)c2=O)c(O)c2ccccc2n1-c1ccccc1 | > 100 | – | > 100 | 98.5 | > 100 | – | 69.4 | > 100 | > 100 | > 100 | > 100 | 69.4 | – | – | – | – | – | – | – | –
CN1C2CCC1CC(C)(O)C2 (configuration not stated) | – | – | – | – | – | > 100 | – | – | – | – | – | > 100 | > 100 | > 100 | > 100 | > 100 | > 100 | > 100 | > 100 | > 100
COc1ccc(N2C(=O)CSC2c2c[nH]c3ccccc23)cc1 (configuration not stated) | – | > 100 | – | – | > 100 | > 100 | – | – | – | – | – | – | > 100 | > 100 | > 100 | > 100 | > 100 | > 100 | > 100 | > 100
